Assays:
HCT116 MTAP null cells = test: HCT116 MTAP null cell line proliferation / cell viability (CellTiter-Glo, 6 days); assay type: cell-based; settings: 144 h; HCT116 MTAP null cells, 6 days treatment, CellTiter-Glo cell viability; read-out: HCT-116 MTAP null IC50
How it was run: (§1)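 WT vs MTAP-null HCT116, 6 d drug, CTG readout. 1:3 × 8–9 pts (top 1/10 μM) or 1:2 × 22 pts (top 10/50 μM). IC50 by 4PL or Hill −1 fit.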

HCT116 WT cells = test: HCT116 WT (parent) cell line proliferation / cell viability (CellTiter-Glo, 6 days); assay type: cell-based; settings: Homo sapiens, HCT-116, 144 h, 6 days treatment
How it was run: as §1

| SMILES | IC50 (HCT116 MTAP null cells) | IC50 (HCT116 WT cells) |
| --- | --- | --- |
| C[C@H]1OC[C@@H](N(C)C(=O)c2cc3c4c(c(N)nc3nc2Cl)COC4)c2ccc(C(F)(F)F)cc21 (single isomer, unassigned) [Example 406] | 11 nM | 0.322 µM |
| CN(C(=O)c1ccc2nc(N)c3cnn(C)c3c2c1)[C@@H]1CCCc2nc(C(F)(F)F)ccc21 (single isomer, unassigned) [Example 411] | 83 nM | 6.27 µM |
| C[C@H]1OC[C@@H](N(C)C(=O)c2ccc3nc(N)c4cnn(C)c4c3c2)c2ccc(C(F)(F)F)cc21 (single isomer, unassigned) [Example 414] | 1 nM | 0.019 µM |
| C[C@@H]1OC[C@H](N(C)C(=O)c2ccc3nc(N)c4cnn(C)c4c3c2)c2ccc(C(F)(F)F)cc21 (single isomer, unassigned) [Example 415] | 78 nM | 2.63 µM |
| CN(C(=O)c1ccc2nc(N)c3cnn(C)c3c2c1)[C@@H]1COCc2c1ccc(C(F)(F)F)c2F (single isomer, unassigned) [Example 416] | 6 nM | 0.414 µM |
| CCOc1ccc2c(n1)COC[C@H]2N(C)C(=O)c1ccc2nc(N)c3c(cnn3C)c2c1 (single isomer, unassigned) [Example 438] | 193 nM | 25.2 µM |
| CN(C(=O)c1cc2c(cc1F)nc(N)c1c2cnn1C)[C@@H]1CCCc2nc(C(F)(F)F)ccc21 (single isomer, unassigned) [Example 439] | 192 nM | 9.46 µM |
| CN(C(=O)c1ccc2nc(N)c3cnn(C)c3c2c1)[C@@H]1CCOCc2nc(C(F)(F)F)ccc21 (single isomer, unassigned) [Example 441] | 181 nM | 9.31 µM |
| CN(C(=O)c1cc2c3c(c(N)nc2cn1)COC3)[C@@H]1COc2cc(C(F)(F)F)ccc21 (single isomer, unassigned) [Example 522] | 63 nM | 2.47 µM |
| CN(C(=O)c1cc2c3c(c(N)nc2cn1)COC3)[C@H]1COc2cc(C(F)(F)F)ccc21 (single isomer, unassigned) [Example 523] | 2720 nM | 10 µM |
| COc1ccc2c(n1)OC[C@H]2N(C)C(=O)c1ccc2nc(N)c3c(c2c1)COC3 (single isomer, unassigned) [Example 524] | 396 nM | 24.5 µM |
| COc1ccc2c(n1)OC[C@@H]2N(C)C(=O)c1ccc2nc(N)c3c(c2c1)COC3 (single isomer, unassigned) [Example 525] | 4160 nM | 50 µM |
| CN(C(=O)c1ccc2nc(N)c3c(c2c1)COC3)[C@@H]1COc2cc(OC(F)F)ccc21 (single isomer, unassigned) [Example 526] | 52 nM | 3.82 µM |
| CN(C(=O)c1ccc2nc(N)c3c(c2c1)COC3)[C@@H]1CCc2nc(C(F)(F)F)ccc21 (single isomer, unassigned) [Example 527] | 143 nM | 7.52 µM |
| CN(C(=O)c1ccc2nc(N)c3c(c2c1)COC3)[C@H]1CCc2nc(C(F)(F)F)ccc21 (single isomer, unassigned) [Example 528] | 5280 nM | 50 µM |
| CN(C(=O)c1ccc2nc(N)c3c(c2c1)COC3)C1COc2nc(C(F)(F)F)ccc21 (single isomer, unassigned) [Example 529] | 89 nM | 5.59 µM |
| CN(C(=O)c1ccc2nc(N)c3c(c2c1)COC3)[C@H]1COc2nc(C(F)(F)F)ccc21 (single isomer, unassigned) [Example 530] | 2510 nM | 40.2 µM |
| CN(C(=O)c1ccc2nc(N)c3c(c2c1)COC3)[C@@H]1CCc2cc(OC(F)(F)F)ccc21 (single isomer, unassigned) [Example 531] | 113 nM | 4.86 µM |
| CN(C(=O)c1ccc2nc(N)c3c(c2c1)COC3)[C@H]1CCc2cc(OC(F)(F)F)ccc21 (single isomer, unassigned) [Example 532] | 2510 nM | 6.68 µM |
| CCN(C(=O)c1ccc2nc(N)c3c(c2c1)COC3)[C@@H]1COc2cc(C(F)(F)F)ccc21 (single isomer, unassigned) [Example 533] | 17 nM | 0.816 µM |

The remaining lines, values ahead:

| IC50 (HCT116 MTAP null cells) | IC50 (HCT116 WT cells) | SMILES |
| --- | --- | --- |
| 554 nM | 23.3 µM | CN(C(=O)c1ccc2nc(N)c3cnn(C)c3c2c1)[C@@H]1COCc2c(F)cncc21 (single isomer, unassigned) [Example 407] |
| 24 nM | 1.71 µM | COc1ccc2c(c1)COC[C@H]2N(C)C(=O)c1ccc2nc(N)c3cnn(C)c3c2c1 (single isomer, unassigned) [Example 408] |
| 48 nM | 3.91 µM | CN(C(=O)c1ccc2nc(N)c3cnn(C)c3c2c1)[C@@H]1COCc2c1ccc(F)c2F (single isomer, unassigned) [Example 409] |
| 21 nM | 1.47 µM | CCOc1ccc2c(n1)COC[C@H]2N(C)C(=O)c1ccc2nc(N)c3cnn(C)c3c2c1 (single isomer, unassigned) [Example 410] |
| 4 nM | 0.228 µM | CN(C(=O)c1ccc2nc(N)c3cnn(C)c3c2c1)[C@@H]1COCc2cc(Br)ccc21 (single isomer, unassigned) [Example 412] |
| 360 nM | 7.99 µM | CN(C(=O)c1ccc2nc(N)c3cnn(C)c3c2c1)[C@H]1COCc2cc(Br)ccc21 (single isomer, unassigned) [Example 413] |
| 841 nM | 6.11 µM | CN(C(=O)c1ccc2nc(N)c3cnn(C)c3c2c1)[C@H]1COCc2c1ccc(C(F)(F)F)c2F (single isomer, unassigned) [Example 417] |
| 3 nM | 0.421 µM | CN(C(=O)c1ccc2nc(N)c3cnn(C)c3c2c1)[C@@H]1COCc2nc(Br)ccc21 (single isomer, unassigned) [Example 418] |
| 545 nM | 26.4 µM | CN(C(=O)c1ccc2nc(N)c3cnn(C)c3c2c1)[C@H]1COCc2nc(Br)ccc21 (single isomer, unassigned) [Example 419] |
| 15 nM | 0.439 µM | COc1ccc2c(c1)COC[C@H]2N(C)C(=O)c1cc2c(cn1)nc(N)c1cnn(C)c12 (single isomer, unassigned) [Example 420] |
| 792 nM | 35.2 µM | COc1ccc2c(c1)COC[C@@H]2N(C)C(=O)c1cc2c(cn1)nc(N)c1cnn(C)c12 (single isomer, unassigned) [Example 421] |
| 10 nM | 0.241 µM | CN(C(=O)c1cc2c(cn1)nc(N)c1cnn(C)c12)[C@@H]1COCc2c1ccc(C(F)(F)F)c2F (single isomer, unassigned) [Example 422] |
| 39 nM | 1.61 µM | CN(C(=O)c1cc2c(cc1F)nc(N)c1cnn(C)c12)[C@@H]1COCc2ncccc21 (single isomer, unassigned) [Example 423] |
| 593 nM | 18.6 µM | CN(C(=O)c1cc2c(cc1F)nc(N)c1cnn(C)c12)[C@H]1COCc2ncccc21 (single isomer, unassigned) [Example 424] |
| 158 nM | 13.4 µM | CN(C(=O)c1cc2c(cc1F)nc(N)c1cnn(C)c12)[C@@H]1COCc2c(F)cncc21 (single isomer, unassigned) [Example 425] |
| 355 nM | 27.9 µM | CN(C(=O)c1cc2c(cc1F)nc(N)c1cnn(C)c12)[C@H]1COCc2c(F)cncc21 (single isomer, unassigned) [Example 426] |
| 8 nM | 0.247 µM | COc1ccc2c(c1)COC[C@H]2N(C)C(=O)c1cc2c(cc1F)nc(N)c1cnn(C)c12 (single isomer, unassigned) [Example 427] |
| 275 nM | 8.34 µM | COc1ccc2c(c1)COC[C@@H]2N(C)C(=O)c1cc2c(cc1F)nc(N)c1cnn(C)c12 (single isomer, unassigned) [Example 428] |
| 49 nM | 2.35 µM | CN(C(=O)c1cc2c(cc1F)nc(N)c1cnn(C)c12)[C@@H]1CCCc2nc(C(F)(F)F)ccc21 (single isomer, unassigned) [Example 429] |
| 3 nM | 0.075 µM | CN(C(=O)c1cc2c(cc1F)nc(N)c1cnn(C)c12)[C@@H]1COCc2cc(OC(F)(F)F)ccc21 (single isomer, unassigned) [Example 430] |
| 305 nM | 5.88 µM | CN(C(=O)c1cc2c(cc1F)nc(N)c1cnn(C)c12)[C@H]1COCc2cc(OC(F)(F)F)ccc21 (single isomer, unassigned) [Example 431] |
| 9 nM | 0.127 µM | CN(C(=O)c1cc2c(cc1F)nc(N)c1cnn(C)c12)[C@@H]1COCc2c1ccc(C(F)(F)F)c2F (single isomer, unassigned) [Example 432] |
| 418 nM | 3.28 µM | CN(C(=O)c1cc2c(cc1F)nc(N)c1cnn(C)c12)[C@H]1COCc2c1ccc(C(F)(F)F)c2F (single isomer, unassigned) [Example 433] |
| 223 nM | 11.5 µM | CN(C(=O)c1cc2c(cc1F)nc(N)c1cnn(C)c12)[C@@H]1CC(C)(C)Cc2nc(C(F)(F)F)ccc21 (single isomer, unassigned) [Example 434] |
| 320 nM | 13.4 µM | CN(C(=O)c1cc2c(cc1F)nc(N)c1cnn(C)c12)[C@H]1CC(C)(C)Cc2nc(C(F)(F)F)ccc21 (single isomer, unassigned) [Example 435] |
| 2 nM | 0.023 µM | Cc1cc2nc(N)c3cnn(C)c3c2cc1C(=O)N(C)[C@@H]1COCc2c1ccc(C(F)(F)F)c2F (single isomer, unassigned) [Example 436] |
| 41 nM | 0.687 µM | Cc1cc2nc(N)c3cnn(C)c3c2cc1C(=O)N(C)[C@H]1COCc2c1ccc(C(F)(F)F)c2F (single isomer, unassigned) [Example 437] |
| 48 nM | 3.01 µM | CN(C(=O)c1cc2c(cc1F)nc(N)c1c2cnn1C)[C@@H]1COCc2c1ccc(C(F)(F)F)c2F (single isomer, unassigned) [Example 440] |
